Measured values: paper doi:10.1101/2024.03.07.583918v2 (biorxiv, 2024)

Target: T1, CheR (Pectobacterium atrosepticum, UniProt Q6D6I8)
T1 sequence (Q6D6I8 1-290): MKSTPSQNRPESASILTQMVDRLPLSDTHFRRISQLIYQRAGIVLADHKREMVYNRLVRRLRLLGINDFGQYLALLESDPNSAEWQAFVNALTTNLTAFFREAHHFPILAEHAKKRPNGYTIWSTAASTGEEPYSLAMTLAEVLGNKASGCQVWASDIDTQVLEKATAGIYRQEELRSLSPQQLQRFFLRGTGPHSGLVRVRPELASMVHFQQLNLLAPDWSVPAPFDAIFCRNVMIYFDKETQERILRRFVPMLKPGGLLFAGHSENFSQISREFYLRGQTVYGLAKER
Assay: isothermal titration calorimetry
Type: binding

| Compound | Kd [µM] |
| --- | --- |
| Nc1ncnc2c1ncn2[C@@H]1O[C@H](CSCC[C@H](N)C(=O)O)[C@@H](O)[C@H]1O [SAH] | 0.48 ± 0.02 |
| C[S+](CC[C@H](N)C(=O)O)C[C@H]1O[C@@H](n2cnc3c(N)ncnc32)[C@H](O)[C@@H]1O (some centres unmarked) [SAM] | 140 ± 20 |
